According to doi:10.1101/2025.10.14.682402v1 (biorxiv, 2025):

What was measured:
[1] = target: T1, ULK2 (Homo sapiens, UniProt Q8IYT8); assay: ADP-Glo kinase assay; format: biochemical
T1 sequence (Q8IYT8 1-1036): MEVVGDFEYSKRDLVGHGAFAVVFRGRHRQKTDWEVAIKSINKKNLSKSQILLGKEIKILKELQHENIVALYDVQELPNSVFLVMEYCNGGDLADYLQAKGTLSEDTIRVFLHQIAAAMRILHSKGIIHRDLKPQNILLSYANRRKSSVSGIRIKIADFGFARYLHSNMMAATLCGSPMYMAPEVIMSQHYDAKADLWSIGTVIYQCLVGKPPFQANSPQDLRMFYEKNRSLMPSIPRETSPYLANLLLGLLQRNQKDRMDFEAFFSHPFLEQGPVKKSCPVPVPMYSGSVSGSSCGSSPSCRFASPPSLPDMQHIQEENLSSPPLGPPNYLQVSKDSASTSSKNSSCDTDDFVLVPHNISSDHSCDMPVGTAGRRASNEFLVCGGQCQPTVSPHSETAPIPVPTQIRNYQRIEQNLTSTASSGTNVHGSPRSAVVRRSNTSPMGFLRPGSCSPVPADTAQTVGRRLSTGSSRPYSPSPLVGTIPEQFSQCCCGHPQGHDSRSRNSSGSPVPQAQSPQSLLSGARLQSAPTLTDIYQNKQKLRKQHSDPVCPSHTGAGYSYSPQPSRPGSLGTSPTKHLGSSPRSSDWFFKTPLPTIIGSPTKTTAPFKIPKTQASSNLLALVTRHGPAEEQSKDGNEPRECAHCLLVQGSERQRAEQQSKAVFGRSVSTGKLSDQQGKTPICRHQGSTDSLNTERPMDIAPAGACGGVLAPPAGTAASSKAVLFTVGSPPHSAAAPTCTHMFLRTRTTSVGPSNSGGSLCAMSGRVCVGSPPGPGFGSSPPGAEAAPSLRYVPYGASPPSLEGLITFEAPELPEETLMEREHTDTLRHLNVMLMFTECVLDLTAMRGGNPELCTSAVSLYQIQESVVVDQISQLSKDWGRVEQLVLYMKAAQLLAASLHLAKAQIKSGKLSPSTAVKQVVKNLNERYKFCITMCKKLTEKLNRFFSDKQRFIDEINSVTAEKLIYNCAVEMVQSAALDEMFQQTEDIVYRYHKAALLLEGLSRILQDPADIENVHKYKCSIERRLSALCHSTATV

[2] = target: T2, ULK1 (Homo sapiens, UniProt O75385); assay: ADP-Glo kinase assay; format: biochemical
T2 sequence (O75385 1-1050): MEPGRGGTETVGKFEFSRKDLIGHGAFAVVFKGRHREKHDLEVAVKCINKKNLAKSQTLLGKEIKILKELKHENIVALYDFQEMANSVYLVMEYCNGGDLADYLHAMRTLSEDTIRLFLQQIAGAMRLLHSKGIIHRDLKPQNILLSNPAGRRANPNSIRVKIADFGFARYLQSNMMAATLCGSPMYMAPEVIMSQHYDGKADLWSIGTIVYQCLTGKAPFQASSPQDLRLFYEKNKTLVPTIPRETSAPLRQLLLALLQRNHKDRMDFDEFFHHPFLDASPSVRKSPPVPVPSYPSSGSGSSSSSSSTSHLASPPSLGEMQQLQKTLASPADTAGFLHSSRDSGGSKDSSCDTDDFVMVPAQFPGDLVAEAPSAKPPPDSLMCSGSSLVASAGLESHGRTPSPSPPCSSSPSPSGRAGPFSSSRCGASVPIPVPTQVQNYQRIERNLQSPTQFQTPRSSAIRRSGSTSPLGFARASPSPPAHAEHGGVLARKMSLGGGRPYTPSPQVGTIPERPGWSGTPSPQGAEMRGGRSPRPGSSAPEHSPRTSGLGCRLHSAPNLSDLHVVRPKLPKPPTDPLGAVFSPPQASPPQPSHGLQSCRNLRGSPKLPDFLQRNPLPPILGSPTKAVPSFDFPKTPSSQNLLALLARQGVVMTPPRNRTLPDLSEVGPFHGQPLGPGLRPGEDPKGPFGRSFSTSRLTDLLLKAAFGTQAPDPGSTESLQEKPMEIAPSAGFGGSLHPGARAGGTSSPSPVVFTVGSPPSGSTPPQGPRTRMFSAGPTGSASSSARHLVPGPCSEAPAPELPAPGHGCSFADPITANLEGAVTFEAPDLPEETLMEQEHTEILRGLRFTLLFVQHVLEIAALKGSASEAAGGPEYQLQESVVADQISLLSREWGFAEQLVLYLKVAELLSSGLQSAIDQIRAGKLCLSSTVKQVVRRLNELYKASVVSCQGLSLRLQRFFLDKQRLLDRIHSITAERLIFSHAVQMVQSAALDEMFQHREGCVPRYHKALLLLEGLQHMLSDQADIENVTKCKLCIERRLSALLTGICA

[3] = target: T3, kinase domain of ULK1 (Homo sapiens, UniProt O75385); conditions: binder
T3 sequence (O75385 1-283 limits assumed): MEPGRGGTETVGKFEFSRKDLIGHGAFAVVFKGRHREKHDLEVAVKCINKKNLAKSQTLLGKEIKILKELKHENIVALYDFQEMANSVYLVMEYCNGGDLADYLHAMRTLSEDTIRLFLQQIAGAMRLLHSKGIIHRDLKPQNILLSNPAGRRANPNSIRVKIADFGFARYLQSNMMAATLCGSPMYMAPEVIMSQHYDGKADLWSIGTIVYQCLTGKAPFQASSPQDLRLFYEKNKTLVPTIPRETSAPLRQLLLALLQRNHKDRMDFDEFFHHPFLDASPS

[4] = target: T4, kinase domain of ULK2 (Homo sapiens, UniProt Q8IYT8); conditions: binder
T4 sequence (Q8IYT8 1-276 limits assumed): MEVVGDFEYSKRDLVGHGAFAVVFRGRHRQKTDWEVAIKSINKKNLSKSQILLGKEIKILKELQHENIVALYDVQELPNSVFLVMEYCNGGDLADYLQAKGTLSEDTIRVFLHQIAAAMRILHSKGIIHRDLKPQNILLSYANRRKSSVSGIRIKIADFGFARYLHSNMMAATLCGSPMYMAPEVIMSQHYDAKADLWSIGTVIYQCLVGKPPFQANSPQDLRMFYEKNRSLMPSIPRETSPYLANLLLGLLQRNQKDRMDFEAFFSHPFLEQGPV

[5] = target: T5, ULK1 (NanoBRET) (Homo sapiens, UniProt O75385); assay: NanoBRET cellular target engagement; format: cell-based
T5 sequence (O75385 1-1050): T2 sequence (O75385 1-1050)

[6] = target: T2, ULK1; assay: biochemical
[7] = target: T1, ULK2; assay: biochemical

Structure (SMILES) | IC50 [1] | IC50 [2] | ULK1 PTS (ºC) [3] | ULK2 PTS (ºC) [4] | IC50 [5] | IC50 [6] | IC50 [7]
CNC(=O)c1ccccc1Nc1nc(Nc2ccc(N3CCOCC3)cc2OC)ncc1Cl [6a, 2-(5-Chloro-2-(2-methoxy-4-morpholinophenylamino)pyrimidin-4-ylamino)-N-methylbenzamide] | > 3 µM | 0.153 µM | 3.65 ± 0.07 °C | 2.31 ± 0.09 °C | – | – | –
CNC(=O)c1ccccc1Nc1nc(Nc2ccc3c(c2)CCC(=O)N3)ncc1C(F)(F)F [6d, N-Methyl-2-(2-(2-oxo-1,2,3,4-tetrahydroquinolin-6-ylamino)-5-(trifluoromethyl)pyrimidin-4-ylamino)benzamide] | 0.172 µM | – | 7.70 ± 0.43 °C | 3.73 ± 0.81 °C | 0.103 µM | 0.008 ± 0.002 µM | –
CNC(=O)c1ccccc1Nc1nc(Nc2ccc3c(c2)CCC(=O)N3)ncc1Cl [6e, 2-(5-Chloro-2-(2-oxo-1,2,3,4-tetrahydroquinolin-6-ylamino)pyrimidin-4-ylamino)-N-methylbenzamide] | 1.44 µM | 0.022 µM | 0.15 ± 0.06 °C | 0.43 ± 0.34 °C | – | – | –
CNC(=O)c1ccccc1Nc1nc(Nc2cc(OC)c(OC)c(OC)c2)ncc1C(F)(F)F [6p, N-Methyl-2-(5-(trifluoromethyl)-2-(3,4,5-trimethoxyphenylamino)pyrimidin-4-ylamino)benzamide] | 0.007 µM | 0.01 µM | 16.50 ± 0.15 °C | 15.81 ± 0.06 °C | 0.01 µM | – | –
CNC(=O)c1ccccc1Nc1ccnc(Nc2cc(OC)c(OC)c(OC)c2)n1 [6q, N-Methyl-2-(2-(3,4,5-trimethoxyphenylamino)pyrimidin-4-ylamino)benzamide] | 30 µM | 0.603 µM | 5.18 ± 0.17 °C | 2.71 ± 0.09 °C | – | – | > 3 µM
